Data on four compounds can be found in PMC9068772, “Discovery of first-in-class nanomolar inhibitors of heptosyltransferase I reveals a new aminoglycoside target and potential alternative mechanism of action” (Scientific Reports, 2022).

In one test the target is T1, HepI (Escherichia coli, UniProt P24173).
T1 construct: made in house; host or cells: E. coli One Shot BL-21-AI
The test can be described thus: Circular dichroism thermal melt of HepI. Particulars: CD melt, HepI plus ligand alone. Type of test: binding, E. coli K12. The procedure:
Circular dichroism melt experiments were performed in a Jasco J-810 spectropolarimeter in Starna 21-Q-2 cells (minimum volume 400 µL) sealed with Teflon tape to prevent evaporation. Parameters include 3 accumulations of data collected between 195–275 nm as a function of temperature (10–95 °C with 5° increments) at a ramp rate of 2°/min and a scanning rate of 50 nm/min. Samples were prepared by diluting a mixture of 5 μM HepI and some combination of 250 μM substrate/product and/or 100 μM inhibitor in a buffer of 10 mM Tris–HCl and 100 mM KCl (pH = 7.5). CD data was analyzed via in house script written in MATLAB R2018A that average a set of triplicate data, normalizes to a percent unfolded (assuming the protein is fully folded at 5 °C) at 222 nm as a function of temperature and fits to a sigmoid curve to determine the melt temperature (TM).

Test [1] addresses T2, Heptosyltransferase I (HepI) WT (Escherichia coli, UniProt P24173).
T2 construct: made in house; host or cells: E. coli One Shot BL-21-AI
Nature of the test: HepI inhibition, ADP/NADH coupled assay (wild type). The class given is biochemical, E. coli K12. Particulars: for kcat: HepI WT in presence of inhibitor; for Ki: 10 μM ODLA, inhibitor varied. On the procedure:
As previously reported[11],[14],[15], an ADP/NADH coupled assay was used to monitor HepI activity by monitoring the absorbance change at 340 nm at 37 °C on a Cary Bio 100 UV–Vis Spectrometer. Under normal conditions, the assay buffer was composed of 50 mM HEPES, 50 mM KCl, 10 mM MgCl2, pH 7.5. The coupled enzyme reaction additionally contained 100 μM phosphoenolpyruvate, 100 μM NADH, 100 μM dithiothreitol (DTT) and 0.05 U/μL of both pyruvate kinase and lactate dehydrogenase. 100 μM ADPH was used when ODLA concentration was varied and 100 μM ODLA was used when ADPH was varied. Once a stable baseline was established (~ 5 min), the reaction was initiated by addition of HepI to a final concentration of 50 nM or 100 nM (for high and lower substrate concentrations respectively) and all reported reaction rates are after background subtraction. When running 12 samples at once, plastic cuvette stirs and a repeat pipettor was used to inject 200 μL enzyme. Inhibition of HepI was monitored using the same ADP/NADH coupled assay, all conditions of the assay were the same as previously described unless otherwise stated. Ki values for each of the compounds were determined by varying compound final concentration from 100 μm to 10 nm, and a final concentration of 10 μM ODLA. Competition assays against ADPH were done with excess ODLA (100 μM) and varying ADPH from 2–0.25 μM. Competition assays against ODLA were done with excess ADPH (100 μM) and varying ODLA from 2–0.25 μM. Reactions were started with addition of enzyme and inhibitor was varied from 30–0.01 μM. Kinetics were fit to Lineweaver-Burke (Eq. 1), competitive (Eq. 2), non-competitive (Eq. 3), mixed (Eq. 4), Dixon (Eq. 5), or Cornish-Bowden (Eq. 6) models. All fitting and plotting was done through MATLAB R2018A.1 1/V1/[S]=KM/Vmax[S]+1/Vmax 2 V[S]=Vmax[S]/KM1+[I]/Ki+[S] 3 V[S]=Vmax[S]/1+([I]/Ki)/KM+[S] 4 V[S]=Vmax[S]/KM(1+[I]/Ki)+[S](1+[I]/αKi) 5 1/V[I]=KM1+I/Ki+[S]1+I/αKi/Vmax[S] 6 [S]/V[I]=KM1+I/Ki+[S]1+I/αKi/Vmax

SMILES strings stand for the structures. Where “and” joins values, the source holds several entries; their conditions need not be identical. Equal entries are not always repeated.

T1 sequence (P24173 whole entry): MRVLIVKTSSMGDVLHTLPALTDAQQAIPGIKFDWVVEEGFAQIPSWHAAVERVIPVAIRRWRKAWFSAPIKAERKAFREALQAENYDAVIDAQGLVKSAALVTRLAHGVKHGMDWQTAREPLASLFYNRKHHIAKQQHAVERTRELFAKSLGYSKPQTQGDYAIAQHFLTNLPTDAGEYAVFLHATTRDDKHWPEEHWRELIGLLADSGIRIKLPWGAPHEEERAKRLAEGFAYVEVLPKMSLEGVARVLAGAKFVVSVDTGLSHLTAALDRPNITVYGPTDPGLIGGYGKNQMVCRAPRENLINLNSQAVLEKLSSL
T2 sequence (P24173 whole entry): as above

Take `Nc1ncnc2c1ncn2[C@@H]1O[C@H](COP(=O)(O)OP(=O)(O)O)[C@@H](O)[C@H]1O` [ADP, Adenosine disphosphate]: the “Melting temperature (Tm) of HepI with ligand” value on HepI is listed as “melts similarly to HepI with ADPH”.

With `Nc1ncnc2c1ncn2[C@@H]1O[C@H](COP(=O)(O)OP(=O)(O)O[C@@H]2O[C@H]([C@@H](O)CO)[C@@H](O)[C@H](O)[C@@H]2O)[C@@H](O)[C@H]1O` [ADPH, ADP-L-glycero-β-D-manno-heptose], on HepI, the “Extent of unfolding of HepI with ligand” value was ~ 100% and the “Melting temperature (Tm) of HepI with ligand” value is reported as “does not induce any changes in the melting temperature”.

For the compound `NCC[C@H](O)C(=O)N[C@@H]1C[C@H](N)[C@@H](O[C@H]2O[C@H](CN)[C@@H](O)[C@H](O)[C@H]2O)[C@H](O)[C@H]1O[C@H]1O[C@H](CO)[C@@H](O)[C@H](N)[C@H]1O` [Amikacin], the “kcat” value in test [1] is 0.138 ± 0.001 s⁻¹. Also, the Ki in test [1] (HepI WT) was 4.3 µM and 4.26 µM.

As for `NC[C@H]1O[C@H](O[C@H]2[C@H](O)[C@@H](O[C@H]3O[C@H](CO)[C@@H](O)[C@H](N)[C@H]3O)[C@H](N)C[C@@H]2N)[C@H](N)[C@@H](O)[C@@H]1O` [Kanamycin B], the “kcat” value in test [1] came out at 0.149 ± 0.007 s⁻¹. In addition, the Ki in test [1] (HepI WT) stood at 0.99 ± 0.119 µM. Also, the “Type of inhibition with ODLA” value in test [1] (HepI WT, excess ADPH, ODLA varied, Lineweaver–Burk, Dixon, Cornish-Bowden) is on record as “Competitive”.
